In patent US20240239806A1, “COMPOUNDS, COMPOSITIONS AND METHODS OF TREATING DISORDERS” (Chengdu Anticancer Bioscience, Ltd., priority 2021, published 2024):
Where two headings read alike, the source gives them in different places.

Test system: RPEMYC^H2B-GFP cells
Test: Phenotypic screening assay (mitotic arrest, polyploidy)
Assay type: cell-based
Details: 1 nM to 30 μM; for IC50: read-out: Proliferative arrest (>50%)
Description: We have previously developed a mechanism-informed phenotypic screening assay to identify novel antimitotic agents. Equipped with a prior understanding of the versatile functions of the chromosomal passenger protein (CPP) complex in orchestrating karyokinesis and cytokinesis, the screening assay is to score for phenotypes typically seen when the CPP complex is disabled. Specifically, the parameters for a positive hit are a temporary elevation of mitotic index (MI) at 24 hours of drug treatment and an accumulation of polyploid cells at 48 hours of drug treatment, indicative of mitotic arrest and cytokinetic failure respectively. These parameters exclude compounds that elicit only a prolonged arrest of cells in mitosis, a phenotype typically provoked by spindle toxins. The screening procedure is briefly summarized here. RPEMYC^H2B-GFP cells engineered to express a Histone 2B-EGFP fusion protein were passaged as batches of 96-well plates, 18-24 hours before exposure to the chemical compounds of the present disclosure at concentrations from 1 nM to 30 μM. At 24, 48 or 72 hours after initiation of treatment, cells were analyzed for either an arrest in mitosis or a change in DNA content by GE IN-Cell Analyzer 2000. As set forth in Table 2 below, a value of greater than or equal to 1 nM and less than or equal to 1.0 μM is marked “A”; a value greater than 1.00 μM and less than or equal to 10.0 μM is marked “B”; a value greater than 10.0 μM and less than or equal to 30.0 μM is marked “C”; and a value greater than 30.0 μM is marked “D.”

[1] = read-out: Min. Effective conc. for Polyploidy (≥5%)

CCOc1cc(Oc2ccnc3ccc(C(N)=O)cc23)cc(-n2cccn2)c1 [Compound 65, 4-(3-Ethoxy-5-(MH-pyrazol-1-yl)phenoxy) quinoline-6-carboxamide] gave a minimal effective concentration [1] of 0.001 to 1 µM, a minimal effective concentration (read-out: Mitotic Arrest (≥5%)) of 0.001 to 1 µM and an IC50 of 1 to 1000 nM.
COc1cc(Oc2ccnc3cc(OC)c(C(N)=O)cc23)cc(-c2cnn(C)c2)c1 [Compound 66, 7-Methoxy-4-(3-methoxy-5-(1-methyl-H-pyrazol-4-yl)phenoxy)quinoline-6-carboxamide] showed a minimal effective concentration [1] of 0.001 to 1 µM, a minimal effective concentration (read-out: Mitotic Arrest (≥5%)) of 0.001 to 1 µM and an IC50 of 1 to 1000 nM.
COc1cc(Oc2ccnc3ccc(Br)cc23)cc(-c2nc(C)no2)c1 [Compound 67, 5-(3-((6-Bromoquinolin-4-yl)oxy)-5-methoyphenyl)-3-methyl-1,2,4-oxadiazole] was tested, and the minimal effective concentration [1] was 0.001 to 1 µM, the minimal effective concentration (read-out: Mitotic Arrest (≥5%)) was 0.001 to 1 µM and the IC50 was 1 to 1000 nM.
CCOc1cc(Oc2ccnc3ccc(Br)cc23)cc(C(=O)NC)c1 [Compound 68] was tested, and the minimal effective concentration [1] was 0.001 to 1 µM, the minimal effective concentration (read-out: Mitotic Arrest (≥5%)) was 0.001 to 1 µM and the IC50 was 1 to 1000 nM.
COc1cc(OC)cc(Oc2ccnc3cc(OC)c(C(N)=O)cc23)c1 [Compound 69, 4-(3,5-Dimethoxyphenoxy)-7-methoxyquinolin-6-carboxamide] showed a minimal effective concentration [1] of 0.001 to 1 µM, a minimal effective concentration (read-out: Mitotic Arrest (≥5%)) of 0.001 to 1 µM and an IC50 of 1 to 1000 nM.
Work on CNC(=O)c1cc(OC)cc(Oc2ccnc3ccc(C(F)(F)F)cc23)c1 [Compound 70, 3-Methoxy-N-methyl-5-((6-(trifluoromethyl)quinolin-4-yl)oxy) benzamide] yielded a minimal effective concentration [1] of 1 to 10 µM, a minimal effective concentration (read-out: Mitotic Arrest (≥5%)) of 1 to 10 µM and an IC50 of 1000 to 10000 nM.
Compound CNC(=O)c1cc(OC)cc(Oc2ccnc3cc(OC)c(C(N)=O)cc23)c1 [Compound 71, 7-Methoxy-4-(3-methoxy-5-(methylcarbamoyl)phenoxy) quinoline-6-carboxamide] has a minimal effective concentration [1] of 1 to 10 µM, a minimal effective concentration (read-out: Mitotic Arrest (≥5%)) of 1 to 10 µM and an IC50 of 1000 to 10000 nM.
Compound CNC(=O)c1cc(OC)cc(Oc2ccnc3ccc(Br)cc23)c1 [Compound 72, 3-((6-Bromoquinolin-4-yl)oxy)-5-methoxy-N-methylbenzamide] has a minimal effective concentration [1] of 0.001 to 1 µM, a minimal effective concentration (read-out: Mitotic Arrest (≥5%)) of 0.001 to 1 µM and an IC50 of 1 to 1000 nM.
For COc1cc(Oc2ncnc3ccccc23)cc(-n2cccn2)c1 [Compound 73, 4-(3-Methoxy-5-(1H-pyrazol-1-yl)phenoxy) quinazoline], the minimal effective concentration [1] was 10 to 30 µM, the minimal effective concentration (read-out: Mitotic Arrest (≥5%)) was 10 to 30 µM and the IC50 was 10000 to 30000 nM.
COc1cc(Oc2ncnc3cc(OC)c(OC)cc23)cc(-n2cccn2)c1 [Compound 74, 4-(3-methoxy-5-(1H-pyrazol-1-yl)phenoxy)-6,7-dimethoxyquinazoline] gave a minimal effective concentration [1] of 10 to 30 µM, a minimal effective concentration (read-out: Mitotic Arrest (≥5%)) of 10 to 30 µM and an IC50 of 10000 to 30000 nM.
Work on COc1cc(Oc2ncnc3cc(OC)c(OC)cc23)cc(-n2cnc(C)c2)c1 [Compound 75, 4-(3-Methoxy-5(4-methyl-H-imidazol-1-yl)phenoxy)-6,7-dimethoxyquinazoline] yielded a minimal effective concentration [1] of 0.001 to 1 µM, a minimal effective concentration (read-out: Mitotic Arrest (≥5%)) of 0.001 to 1 µM and an IC50 of 1 to 1000 nM.
COc1cc(Oc2ncnc3ccccc23)cc(-n2cnc(C)c2)c1 [Compound 76, 4-(3-Methoxy-5-(4-methyl-1H-imidazol-1-yl)phenoxy)quinazoline] gave a minimal effective concentration [1] of 1 to 10 µM, a minimal effective concentration (read-out: Mitotic Arrest (≥5%)) of 1 to 10 µM and an IC50 of 1000 to 10000 nM.
Work on COc1cc(Oc2ccnc3ccccc23)cc(-n2cnc(C)c2)c1 [Compound 77, 4-(3-Methoxy-5-(4-methyl-1H-imidazol-1-yl)phenoxy)quinoline] yielded a minimal effective concentration [1] of 0.001 to 1 µM, a minimal effective concentration (read-out: Mitotic Arrest (≥5%)) of 0.001 to 1 µM and an IC50 of 1 to 1000 nM.
In the case of COc1cc(Oc2ncnc3ccccc23)cc(-n2ccnc2)c1 [Compound 78], the minimal effective concentration [1] is reported as 1 to 10 µM, the minimal effective concentration (read-out: Mitotic Arrest (≥5%)) is reported as 1 to 10 µM and the IC50 is reported as 1000 to 10000 nM.
Compound COc1cc(Oc2ncnc3cc(OC)c(OC)cc23)cc(-n2ccnc2)c1 [Compound 79, 4-(3-(1H-Imidazol-1-yl)-5-methoxyphenoxy)-6,7-dimethoxyquinazoline] has a minimal effective concentration [1] of 10 to 30 µM, a minimal effective concentration (read-out: Mitotic Arrest (≥5%)) of 10 to 30 µM and an IC50 of 10000 to 30000 nM.
COc1cc(Oc2ccnc3cc(OC)c(C(N)=O)cc23)cc(O[C@H]2CCOC2)c1 [Compound 80, (S)-7-methoxy-4-(3-methoxy-5-((tetrahydrofuran-3-yl)oxy)phenoxy)quinoline-6-carboxamide] gave a minimal effective concentration [1] of 0.001 to 1 µM and a minimal effective concentration (read-out: Mitotic Arrest (≥5%)) of 0.001 to 1 µM.
COc1cc(Oc2ccnc3cc(OC)c(C(N)=O)cc23)cc(O[C@@H]2CCOC2)c1 [Compound 81, (R)-7-methoxy-4-(3-methoxy-5-((tetrahydrofuran-3-yl)oxy)phenoxy)quinoline-6-carboxamide] gave a minimal effective concentration [1] of 0.001 to 1 µM and a minimal effective concentration (read-out: Mitotic Arrest (≥5%)) of 0.001 to 1 µM.
Compound COc1cc2nccc(Oc3cc(OC4CCOC4)cc(OC4CCOC4)c3)c2cc1C(N)=O (stereo not drawn) [Compound 82, 4-(3,5-bis((tetrahydrofuran-3-yl)oxy)phenoxy)-7-methoxyquinoline-6-carbonamide] has a minimal effective concentration [1] of 1 to 10 µM and a minimal effective concentration (read-out: Mitotic Arrest (≥5%)) of 1 to 10 µM.
Compound COc1cc(OCC2CCOC2)cc(Oc2ccnc3cc(OC)c(C(N)=O)cc23)c1 (stereo not drawn) [Compound 83, 7-methoxy-4-(3-methoxy-5-((tetrahydrofuran-3-yl)methoxy)phenoxy)quinoline-6-carboxamide] has a minimal effective concentration [1] of 0.001 to 1 µM and a minimal effective concentration (read-out: Mitotic Arrest (≥5%)) of 0.001 to 1 µM.
COc1cc(Oc2ccnc3cc(OC)c(C(N)=O)cc23)cc(-n2cc(C)cn2)c1 [Compound 84] gave a minimal effective concentration [1] of 0.001 to 1 µM and a minimal effective concentration (read-out: Mitotic Arrest (≥5%)) of 0.001 to 1 µM.
COc1cc(Oc2ccnc3cc(OC)c(C(N)=O)cc23)cc(-n2ccc(C)n2)c1 [Compound 85, 7-methoxy-4-(3-methoxy-5-(3-methyl-1H-pyrazol-1-yl)phenoxy)quinoline-6-carboxamide] gave a minimal effective concentration [1] of 0.001 to 1 µM and a minimal effective concentration (read-out: Mitotic Arrest (≥5%)) of 0.001 to 1 µM.
COc1cc(Oc2ccnc3cc(OC)c(C(N)=O)cc23)cc(-n2nc(C)cc2C)c1 [Compound 86, 4-(3-(3,5-dimethyl-1H-pyrazol-1-yl)-5-methoxyphenoxy)-7-methoxyquinoline-6-carboxamide] was tested, and the minimal effective concentration [1] was 1 to 10 µM and the minimal effective concentration (read-out: Mitotic Arrest (≥5%)) was 1 to 10 µM.
Work on COc1cc(Oc2ccnc3cc(OC)c(C(N)=O)cc23)cc(-c2nnc(C)o2)c1 [Compound 87, 7-methoxy-4-(3-methoxy-5-(5-methyl-1,3,4-oxadiazol-2-yl)phenoxy)quinoline-6-carboxamide] yielded a minimal effective concentration [1] of 0.001 to 1 µM and a minimal effective concentration (read-out: Mitotic Arrest (≥5%)) of 0.001 to 1 µM.
Compound COc1cc(Oc2ccnc3cc(OC)c(Br)cc23)cc(-n2cccn2)c1 [Compound 88, 6-bromo-7-methoxy-4-(3-methoxy-5-(1H-pyrazol-1-yl)phenoxy)quinoline] has a minimal effective concentration [1] of 0.001 to 1 µM and a minimal effective concentration (read-out: Mitotic Arrest (≥5%)) of 0.001 to 1 µM.
COc1cc(OC)cc(Oc2ccnc3cc(OC)c(Br)cc23)c1 [Compound 89, 6-bromo-4-(3,5-dimethoxyphenoxy)-7-methoxyquinone] showed a minimal effective concentration [1] of 0.001 to 1 µM and a minimal effective concentration (read-out: Mitotic Arrest (≥5%)) of 0.001 to 1 µM.
Compound CNC(=O)c1cc(OC)cc(Oc2ccnc3cc(OC)c(Br)cc23)c1 [Compound 90, 3-((6-bromo-7-methoxyquinolin-4-yl)oxy)-5-methoxy-N-methylbenzamide] has a minimal effective concentration [1] of 1 to 10 µM and a minimal effective concentration (read-out: Mitotic Arrest (≥5%)) of 1 to 10 µM.
Compound COc1cc(N)cc(Oc2ccnc3ccc(Br)cc23)c1 [Compound 91, 3-((6-bromoquinolin-4-yl)oxy)-5-methoxyaniline] has a minimal effective concentration [1] of 0.001 to 1 µM and a minimal effective concentration (read-out: Mitotic Arrest (≥5%)) of 0.001 to 1 µM.
